Read-outs that look alike come from different tables or passages of the source.
Legend:
[1] = Brain tissue and whole blood concentration in SD rats after oral administration; format: in vivo; settings: rat, PO 10 mg/kg, 2 h after administration
Protocol: In this assay, the pharmacokinetic characteristics of the compounds of the present application were assayed after administration of some of the compounds of the present application to SD rats by single oral administration and intravenous injection.
2. […] The mixture was stirred, vortexed and/or sonicated. Once a solution was obtained, the vehicle was gradually added to a final volume to reach the target concentration. The solution was vortexed, and sonicated to obtain a homogeneous solution.
Meanwhile, the IV group was not fasted and the PO group was fasted overnight (>12 hrs) and given food 2 hrs after drug administration. All animals had free access to water. The dosing regimen and pharmacokinetic sampling regimen are given in Table 6 and Table 7 below, respectively.
Rats were administered according to the above regimen, and blood and brain tissue samples were collected and processed at predetermined time points (collection and processing were performed according to conventional methods in the art).
The supernatant was diluted 2-fold with ultra-pure water, and the samples were analyzed by LC/MS.
Brain tissues were weighed and homogenized by adding 4-fold homogenizing solution (acetonitrile/water=1/1 v/v). […] The supernatant was diluted 2-fold with ultra-pure water, and the samples were analyzed by LC/MS.

[2] = Pharmacokinetics in SD rats, single intravenous injection and oral administration; format: in vivo, SD rat; settings: for AUC(0-inf) / AUC(0-t) / Vd / half-life / bioavailability / Cmax / Tmax: SD, rat, whole blood; for bioavailability: PO 10 mg/kg vs IV 3 mg/kg, read-out: F % (bioavailability)
Protocol: In this assay, the pharmacokinetic characteristics of the compounds of the present application were assayed after administration of some of the compounds of the present application to SD rats by single oral administration and intravenous injection. 1. […] The mixture was stirred, vortexed and/or sonicated. Once a solution was obtained, the vehicle was gradually added to a final volume to reach the target concentration. The solution was vortexed, and sonicated to obtain a homogeneous solution. The solution was filtered through a 0.22 μm PVDF membrane. 2. […] The mixture was stirred, vortexed and/or sonicated. Once a solution was obtained, the vehicle was gradually added to a final volume to reach the target concentration. The solution was vortexed, and sonicated to obtain a homogeneous solution. […] Meanwhile, the IV group was not fasted and the PO group was fasted overnight (>12 hrs) and given food 2 hrs after drug administration. All animals had free access to water. The dosing regimen and pharmacokinetic sampling regimen are given in Table 6 and Table 7 below, respectively. […] Rats were administered according to the above regimen, and blood and brain tissue samples were collected and processed at predetermined time points (collection and processing were performed according to conventional methods in the art). […] The supernatant was diluted 2-fold with ultra-pure water, and the samples were analyzed by LC/MS. Pharmacokinetic parameters was calculated using WinNonlin software. The following pharmacokinetic parameters was calculated from the plasma drug concentration-time data: CL (clearance); Vd (apparent volume of distribution); T1/2 (elimination half-life time); Cmax (peak concentration); Tmax (time to peak); AUC (area under plasma drug concentration-time curve); MRT (mean retention time); F % (bioavailability).

HER2 kinase = target: T1, HER2 kinase (Homo sapiens, UniProt P04626); experiment: HER2 kinase assay (ULight/PT66 TR-FRET); format: biochemical
T1 construct: purchased Carna Biosciences 08-016
T1 sequence (P04626 23-1255): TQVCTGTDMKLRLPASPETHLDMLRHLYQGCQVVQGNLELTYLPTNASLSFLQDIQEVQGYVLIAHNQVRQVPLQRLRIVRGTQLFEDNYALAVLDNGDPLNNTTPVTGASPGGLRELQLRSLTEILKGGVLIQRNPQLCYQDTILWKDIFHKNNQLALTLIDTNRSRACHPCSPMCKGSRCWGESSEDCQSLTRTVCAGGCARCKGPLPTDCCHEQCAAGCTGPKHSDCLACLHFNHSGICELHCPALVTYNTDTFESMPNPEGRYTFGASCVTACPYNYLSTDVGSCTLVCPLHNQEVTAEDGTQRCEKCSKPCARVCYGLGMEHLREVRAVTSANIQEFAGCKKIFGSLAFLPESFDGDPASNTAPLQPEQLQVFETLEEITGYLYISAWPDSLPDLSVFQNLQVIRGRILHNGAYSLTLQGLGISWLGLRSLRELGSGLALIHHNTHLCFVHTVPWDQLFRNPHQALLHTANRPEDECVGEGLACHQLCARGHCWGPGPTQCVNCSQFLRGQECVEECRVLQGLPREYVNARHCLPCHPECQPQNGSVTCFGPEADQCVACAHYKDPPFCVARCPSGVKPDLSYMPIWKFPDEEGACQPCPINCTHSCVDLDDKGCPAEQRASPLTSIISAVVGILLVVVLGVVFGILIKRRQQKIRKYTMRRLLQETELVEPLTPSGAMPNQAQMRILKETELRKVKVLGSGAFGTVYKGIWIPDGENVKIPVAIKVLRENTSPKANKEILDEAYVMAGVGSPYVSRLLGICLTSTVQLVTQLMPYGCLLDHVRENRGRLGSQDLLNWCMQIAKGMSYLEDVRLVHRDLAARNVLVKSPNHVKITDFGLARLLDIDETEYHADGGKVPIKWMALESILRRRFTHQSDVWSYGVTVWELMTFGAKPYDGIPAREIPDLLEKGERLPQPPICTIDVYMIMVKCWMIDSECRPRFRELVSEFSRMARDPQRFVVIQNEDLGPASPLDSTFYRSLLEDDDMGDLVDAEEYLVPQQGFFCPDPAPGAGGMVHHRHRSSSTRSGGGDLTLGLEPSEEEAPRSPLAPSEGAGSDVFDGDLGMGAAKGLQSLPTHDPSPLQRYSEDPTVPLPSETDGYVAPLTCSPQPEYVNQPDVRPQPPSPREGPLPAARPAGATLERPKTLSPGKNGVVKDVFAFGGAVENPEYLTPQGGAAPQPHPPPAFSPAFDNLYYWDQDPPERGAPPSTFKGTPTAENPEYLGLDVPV
Protocol: (§1) Preparation of compound solution: The assay compound was dissolved in DMSO to form a 10 mM stock solution. Prior to use, the compound was diluted to 0.25 mM in DMSO (100 times the final concentration of the diluent) and then subjected to a 3-fold concentration gradient dilution to obtain a total of 11 concentrations. The solution was diluted with buffer to a diluent with 4× the final concentration when the compound was added.
(§2) HER2 kinase assay: buffer was prepared, and 40 nM 4×Her2 kinase solution, 40 μM 4×ATP solution, and 400 nM 4×ULight™-labeled Ploy GT Peptide substrate solution were prepared using the buffer. After the preparation was completed, the enzyme was mixed with different concentrations of compounds pre-prepared by dilution, and the mixture was left to stand at room temperature for 5 min. Each concentration was performed in duplicate. The corresponding substrate and ATP were added and the mixture was reacted at room temperature for 120 minutes (with negative and positive controls). After completion of the reaction, PT66 detection antibody was added. The mixture was incubated at room temperature for 60 minutes, and then detected by Envision.
(§3) Compound concentrations and corresponding inhibition rates were input into GraphPad Prism for processing to calculate IC50 values.

[3] = target: Ba/F3 HER2 A775_G776insYVMA cells (Homo sapiens, UniProt P04626, DUP772-775, cells depend on it); experiment: Inhibition of cell proliferation, CTG method, Ba/F3 HER2 A775_G776insYVMA; format: cell-based; settings: 72 hours, read-out: Ba/F3 HER2 A775-G776insYVMA IC50
Chain of Ba/F3 HER2 A775_G776insYVMA cells (P04626 with tags, fused parts or gaps DUP772-775): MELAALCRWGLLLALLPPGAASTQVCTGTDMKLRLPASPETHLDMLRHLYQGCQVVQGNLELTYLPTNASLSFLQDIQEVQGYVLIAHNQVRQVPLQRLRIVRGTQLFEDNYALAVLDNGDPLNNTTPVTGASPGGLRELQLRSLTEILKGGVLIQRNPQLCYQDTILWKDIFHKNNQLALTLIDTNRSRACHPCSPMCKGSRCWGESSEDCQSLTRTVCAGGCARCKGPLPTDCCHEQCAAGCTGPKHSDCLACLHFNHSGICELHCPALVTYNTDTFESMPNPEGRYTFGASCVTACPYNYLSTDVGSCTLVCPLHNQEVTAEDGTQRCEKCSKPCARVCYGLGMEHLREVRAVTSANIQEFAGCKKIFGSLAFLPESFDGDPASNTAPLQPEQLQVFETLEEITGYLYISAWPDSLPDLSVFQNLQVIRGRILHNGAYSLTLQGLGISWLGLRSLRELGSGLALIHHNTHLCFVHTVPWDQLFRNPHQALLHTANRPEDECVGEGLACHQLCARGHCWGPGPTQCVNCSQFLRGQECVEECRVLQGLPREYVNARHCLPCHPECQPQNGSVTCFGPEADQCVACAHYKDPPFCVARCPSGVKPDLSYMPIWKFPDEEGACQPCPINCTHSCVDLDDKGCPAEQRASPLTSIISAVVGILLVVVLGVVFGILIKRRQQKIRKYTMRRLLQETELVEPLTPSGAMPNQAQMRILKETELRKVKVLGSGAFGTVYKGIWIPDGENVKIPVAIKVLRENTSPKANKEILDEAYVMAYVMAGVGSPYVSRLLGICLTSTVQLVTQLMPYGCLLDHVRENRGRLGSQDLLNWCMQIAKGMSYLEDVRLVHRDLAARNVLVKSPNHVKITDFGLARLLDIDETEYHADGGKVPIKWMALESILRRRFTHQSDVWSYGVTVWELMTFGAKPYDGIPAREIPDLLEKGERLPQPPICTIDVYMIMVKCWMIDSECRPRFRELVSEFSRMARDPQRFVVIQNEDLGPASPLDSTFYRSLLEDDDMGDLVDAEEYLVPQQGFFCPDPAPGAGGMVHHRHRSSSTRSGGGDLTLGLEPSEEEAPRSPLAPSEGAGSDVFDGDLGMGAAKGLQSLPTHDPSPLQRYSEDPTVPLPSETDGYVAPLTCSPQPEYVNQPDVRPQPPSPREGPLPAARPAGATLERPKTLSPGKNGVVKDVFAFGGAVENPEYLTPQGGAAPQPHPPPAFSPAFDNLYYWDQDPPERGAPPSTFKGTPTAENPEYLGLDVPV
Description: The present application examined the in vitro anti-proliferative activity of the compounds of the present disclosure against in vitro cultured BT474, NCI-N87, Ba/F3-EGFR-VIII and Ba/F3 HER2 A775_G776insYVMA and Ba/F3 EGFR D770_N771insSVD cell lines by CTG method.
Cell lines: BT474 (from the cell bank of Chinese Academy of Sciences), NCI-N87 (from ATCC), Ba/F3-EGFR-VIII, Ba/F3 HER2 A775_G776insYVMA and Ba/F3 EGFR D770_N771insSVD (all from KYinno Biotechnology (Beijing) Co., Ltd.); all of the above cells were cultured with RPMI1640 medium containing 10% fetal bovine serum, 100 U/mL penicillin, and 100 μg/mL streptomycin in the culture process.
1. The assay compound was dissolved with DMSO to form a stock solution and a gradient dilution was performed, followed by dilution with the corresponding medium to obtain a solution with 5-fold working concentration.
2. Cells in logarithmic growth phase were adjusted to specific cell densities by dilution with culture medium, and 80 μL of cell suspension was added to a 96-well plate, such that plating densities of cells of BT474, NCI-N87, Ba/F3-EGFR-VIII, Ba/F3 HER2 A775_G776insYVMA and Ba/F3 EGFR D770_N771insSVD were all 3000 cells/well. The cells of Ba/F3-EGFR-VIII, Ba/F3 HER2 A775_G776insYVMA and Ba/F3 EGFR D770_N771insSVD were used directly in the next step (treatment with compound), whereas the BT474 and NCI-N87 needed to be cultured overnight in a 37° C., 5% carbon dioxide gas incubator to adhere to the wall, and then treated with compounds.
3. […] The highest concentration of the assayed compound was 10 μM, 4-fold serial dilution, a total of 9 concentrations, and duplicate wells. A control group without compound was also set up.
4. The cells were cultured for another 72 hours, and then cell viability was detected by CTG assay kit. Signal values were read with a multifunctional plate reader (Perkin Elmer). GraphPad Prism software was used to create a dose-response curve and IC50 was calculated.

[4] = tested on: Ba/F3 ERBB2 A775_G776insYVMA; experiment: Efficacy in nude mouse tumor-bearing model of Ba/F3 ERBB2 A775_G776insYVMA; format: in vivo, BALB/c nude mice; settings: 30 mg/kg
Protocol: In this assay, some compounds of the application were orally administered to a nude mouse tumor-bearing model of Ba/F3 ERBB2 A775_G776insYVMA to study the effect of the compounds of the application on tumor growth.
Preparation of the assay compound: an appropriate weight of the compound to be assayed was weighed, and completely dissolved in an appropriate volume of vehicle (DMSO). The mixture was vortexed or sonicated. Then an appropriate amount of Solutol was added and mixed well. Finally, sterilized drinking water was added and the mixture was mixed by stirring or vortexing to obtain a homogeneous solution or suspension.
Method: All the assays were authorized and agreed by the Animal Welfare Committee. Ba/F3 ERBB2 A775_G776insYVMA in a logarithmic growth period was inoculated subcutaneously into the right back of immunodeficient nude mice (BALB/c nude, female, 6-7 weeks of age, body weight 18±2 g) with 4×10^6 cells/rat. After the tumor grew to 150-200 mm^3, the animals were randomly divided into a treatment group and a control group. For the treatment group, a solution of each assay compound was given, and for the control group, a vehicle solution without the assay compound was given. Both of the treatment group and the control group were administered once a day for about 2 weeks. The dose of each assay article was 30 mg/kg (in terms of effective compound concentration), and the assay compounds were all prepared freshly for use. During the assay, the diameter of loaded tumors was measured twice a week, and the mice were weighed at the same time. The tumor volume (TV) was calculated by the formula: TV=½×a×b^2, where a and b denote length and width, respectively. Relative tumor volume (RTV) was calculated based on the measured results by the formula: RTV=Vt/V0, where V0 is the tumor volume measured at grouping and administration and Vt is the tumor volume at each measurement. The evaluation index of antitumor activity was the relative tumor proliferation rate T/C (%) calculated by the formula: T/C (%)=(TRTV/CRTV)×100%, TRTV: RTV of the administration group; CRTV: RTV of the control group. T and C denote the average tumor volume at a certain time point in the administration group and the control group, respectively.

EGFR^WT kinase = EGFR^WT kinase (Homo sapiens, UniProt P00533); experiment: EGFR^WT kinase assay (ULight/PT66 TR-FRET); format: biochemical
Chain of EGFR^WT kinase (P00533 25-1210): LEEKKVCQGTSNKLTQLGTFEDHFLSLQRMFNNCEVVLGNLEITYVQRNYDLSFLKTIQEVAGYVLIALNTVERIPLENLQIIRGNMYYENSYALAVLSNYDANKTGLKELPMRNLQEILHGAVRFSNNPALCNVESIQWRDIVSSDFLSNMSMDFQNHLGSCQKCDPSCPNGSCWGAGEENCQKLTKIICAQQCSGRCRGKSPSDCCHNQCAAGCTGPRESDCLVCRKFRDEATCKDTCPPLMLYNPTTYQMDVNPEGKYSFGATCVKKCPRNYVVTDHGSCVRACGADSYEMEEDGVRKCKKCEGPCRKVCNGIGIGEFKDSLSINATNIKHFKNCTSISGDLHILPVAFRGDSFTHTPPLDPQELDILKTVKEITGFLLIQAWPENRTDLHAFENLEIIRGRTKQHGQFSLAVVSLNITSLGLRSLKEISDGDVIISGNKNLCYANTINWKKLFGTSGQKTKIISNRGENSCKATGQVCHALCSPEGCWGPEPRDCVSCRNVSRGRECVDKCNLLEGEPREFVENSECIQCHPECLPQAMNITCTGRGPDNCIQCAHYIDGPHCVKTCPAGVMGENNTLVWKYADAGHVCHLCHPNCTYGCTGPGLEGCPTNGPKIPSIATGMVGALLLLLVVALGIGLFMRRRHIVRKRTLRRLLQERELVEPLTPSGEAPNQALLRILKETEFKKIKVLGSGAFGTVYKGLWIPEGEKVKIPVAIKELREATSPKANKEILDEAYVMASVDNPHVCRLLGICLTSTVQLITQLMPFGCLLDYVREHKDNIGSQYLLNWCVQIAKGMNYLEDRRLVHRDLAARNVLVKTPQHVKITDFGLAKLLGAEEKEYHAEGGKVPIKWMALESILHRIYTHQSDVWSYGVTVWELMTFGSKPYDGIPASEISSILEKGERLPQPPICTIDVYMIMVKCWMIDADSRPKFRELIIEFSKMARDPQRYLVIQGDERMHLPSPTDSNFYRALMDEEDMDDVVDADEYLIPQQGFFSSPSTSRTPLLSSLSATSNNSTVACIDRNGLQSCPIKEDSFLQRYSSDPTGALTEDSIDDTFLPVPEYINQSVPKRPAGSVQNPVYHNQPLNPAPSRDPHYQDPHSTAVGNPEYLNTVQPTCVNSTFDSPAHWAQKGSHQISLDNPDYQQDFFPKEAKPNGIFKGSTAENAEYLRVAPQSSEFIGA
Protocol: as §1
as §2, with “EGFR^WT kinase assay:” for “HER2 kinase assay:”, “prepared, and 3.48 nM 4×EGFR” for “prepared, and 40 nM 4×Her2”, “3.48 nM 4×EGFR kinase solution,” for “40 nM 4×Her2 kinase solution,”, “kinase solution, 600 μM 4×ATP” for “kinase solution, 40 μM 4×ATP”, “nM 4×ULight™-labeled JAK-1 (Try1023) Peptide substrate” for “nM 4×ULight™-labeled Ploy GT Peptide substrate”
as §3

[5] = NA: Exposure was too low to be counted
[6] = PO 10 mg/kg, NA: Exposure was too low to be counted

| SMILES | Cl_obs ([2]; IV 3 mg/kg) [mL/min/kg] | AUC(0-inf) ([2]; IV 3 mg/kg) [ng·h/mL] | AUC(0-t) ([2]; IV 3 mg/kg) [ng·h/mL] | Vd ([2]; IV 3 mg/kg) [L/kg] | half-life ([2]; IV 3 mg/kg) [h] | bioavailability [2, 5] [%] | AUC(0-inf) [2, 6] [ng·h/mL] | AUC(0-t) [2, 6] [ng·h/mL] | Cmax [2, 6] [ng/mL] | Tmax [2, 6] [h] | half-life [2, 6] [h] | IC50 (HER2 kinase) [nM] | GI50 [3] [nM] | IC50 (EGFR^WT kinase) [nM] | other results |
| --- | --- | --- | --- | --- | --- | --- | --- | --- | --- | --- | --- | --- | --- | --- | --- |
| CN1CCC[C@H]1/C=C/C(=O)Nc1ccc2ncnc(Nc3ccc(OCc4ccccn4)c(Cl)c3)c2c1 [Control compound 2, reference compound] | 84.3 ± 5.1 | 595 ± 37 | 565 ± 40 | 47.5 ± 7.5 | 6.5 ± 0.78 | 0.992 | 23.8 | 18.7 | 6.72 | 0.25 | 2.39 | – | – | – | concentration at 2 h ([1]; in vivo, whole blood, read-out: Blood drug concentration): 1.14 ng/mL; oral absorption (in words) ([2]; administrated orally): hardly absorbed |
| CN1CCC[C@@H]1/C=C/C(=O)Nc1ccc2ncnc(Nc3ccc(OCc4ccccn4)c(Cl)c3)c2c1OCC(F)F [Example 11, (R,E)-N-(4-((3-chloro-4-(pyridin-2-ylmethoxy)phenyl)amino)-5-(2,2-difluoroethoxy)quinazolin-6-yl)-3-(1-methylpyrrolidin-2-yl)acrylamide] | – | – | – | – | – | – | – | – | – | – | – | < 10 | 1 to 5 | < 10 | T/C (%) ([4]; QD×15, PO, day 15): 5.71% |
| CCCOc1c(NC(=O)/C=C/[C@H]2CCCN2C)ccc2ncnc(Nc3ccc(OCc4ccccn4)c(Cl)c3)c12 [Example 13, (R,E)-N-(4-((3-chloro-4-(pyridin-2-ylmethoxy)phenyl)amino)-5-propoxyquinazolin-6-yl)-3-(1-methylpyrrolidin-2-yl)acrylamide] | 52.3 ± 5.7 | 964 ± 104 | 953 ± 105 | 18.7 ± 2.9 | 4.12 ± 0.22 | 23.3 ± 7.4 | 750 ± 238 | 719 ± 233 | 53.7 ± 12.4 | 2 | 5.42 ± 0.34 | < 10 | 1 to 5 | < 10 | concentration at 2 h ([1]; whole blood, read-out: Blood drug concentration): 273 ng/mL; Kp at 2 h ([1]; brain / whole blood, read-out: Brain tissue/blood ratio): 0.465; concentration at 2 h ([1]; brain, NA: Exposure was too low to be counted, read-out: Brain tissue concentration): 127 ng/g |
| COc1c(NC(=O)/C=C/[C@H]2CCCN2C(C)C)ccc2ncnc(Nc3ccc(OCc4ccccn4)c(Cl)c3)c12 [Example 24, (R,E)-N-(4-((3-chloro-4-(pyridin-2-ylmethoxy)phenyl)amino)-5-methoxyquinazolin-6-yl)-3-(1-isopropylpyrrolidin-2-yl)acrylamide] | 32.2 ± 0.5 | 1550 ± 23 | 1510 ± 26 | 14 ± 1.3 | 5.01 ± 0.45 | 25 ± 11.2 | 1470 ± 655 | 1260 ± 561 | 86.3 ± 32.7 | 5.33 ± 2.89 | 7.81 ± 3.71 | < 10 | 1 to 5 | 100 to 1000 | T/C (%) ([4]; QD×14, PO, day 14): 12.4% |
| [2H]C([2H])([2H])Oc1c(NC(=O)/C=C/[C@H]2CCCN2C)ccc2ncnc(Nc3ccc(OCc4ccccn4)c(Cl)c3)c12 [Example 33, (R,E)-N-(4-((3-chloro-4-(pyridin-2-ylmethoxy)phenyl)amino)-5-(methoxy-d3)quinazolin-6-yl)-3-(1-methylpyrrolidin-2-yl)acrylamide] | – | – | – | – | – | – | – | – | – | – | – | < 10 | < 1 | < 10 | T/C (%) ([4]; QD×11, PO, day 11): 12.4% |
